From ChEMBL document CHEMBL3826966, “A chromatography-free isolation of rohitukine from leaves of Dysoxylum binectariferum: Evaluation for in vitro cytotoxicity, Cdk inhibition and physicochemical properties” (Bioorg Med Chem Lett, 2016)

What was measured:
[1] = target: Protein kinase C zeta type (Homo sapiens) (UniProt Q05513); assay: Inhibition of human PKCzeta (2 to 592 residues) assessed as remaining enzyme activity at 50 uM after 30 mins by 33P-ATP filter-binding assay
[2] = target: Insulin receptor (Homo sapiens) (UniProt P06213); assay: Inhibition of human IR (1001 to 1382 residues) assessed as remaining enzyme activity at 50 uM after 30 mins by 33P-ATP filter-binding assay
[3] = Cell cycle arrest in human HL60 cells assessed as accumulation at G1 phase at 5 uM (reference value: 59 %); format: functional, cell-based; settings: HL-60
[4] = Cytotoxicity against human SF295 cells assessed as cell growth inhibition after 48 hrs by MTT assay; format: functional; settings: SF-295, 48 h
[5] = target: Serine/threonine-protein kinase tousled-like 1 (Homo sapiens) (UniProt Q9UKI8); assay: Inhibition of human TLK1 (1 to 766 residues) assessed as remaining enzyme activity at 50 uM after 30 mins by 33P-ATP filter-binding assay
PSN1 = assay: Cytotoxicity against human PSN1 cells assessed as cell growth inhibition after 48 hrs by MTT assay; format: functional; settings: PSN1, 48 h
[6] = target: Ephrin type-B receptor 4 (Homo sapiens) (UniProt P54760); assay: Inhibition of human EPHB4 (561 to 997 residues) assessed as remaining enzyme activity at 50 uM after 30 mins by 33P-ATP filter-binding assay
[7] = target: Serine/threonine-protein kinase 33 (Homo sapiens) (UniProt Q9BYT3); assay: Inhibition of human STK33 (1 to 514 residues) assessed as remaining enzyme activity at 50 uM after 30 mins by 33P-ATP filter-binding assay
MDA-MB-468 = assay: Cytotoxicity against human MDA-MB-468 cells assessed as cell growth inhibition after 48 hrs by MTT assay; format: functional; settings: MDA-MB-468, 48 h
[8] = target: Mitogen-activated protein kinase 14 (Homo sapiens) (UniProt Q16539); assay: Inhibition of human p38alpha MAPK (1-360 residues) assessed as remaining enzyme activity at 50 uM after 30 mins by 33P-ATP filter-binding assay
[9] = target: Tyrosine-protein kinase Lck (Homo sapiens) (UniProt P06239); assay: Inhibition of human LCK (2 to 509 residues) assessed as remaining enzyme activity at 50 uM after 30 mins by 33P-ATP filter-binding assay
[10] = target: Serine/threonine-protein kinase PAK 5 (Homo sapiens) (UniProt Q9P286); assay: Inhibition of human PAK5 (2 to 719 residues) assessed as remaining enzyme activity at 50 uM after 30 mins by 33P-ATP filter-binding assay
[11] = target: Rho-associated protein kinase 2 (Rattus norvegicus) (UniProt Q62868); assay: Inhibition of rat ROCK2 (2 to 543 residues) assessed as remaining enzyme activity at 50 uM after 30 mins by 33P-ATP filter-binding assay
[12] = target: MAP kinase-activated protein kinase 3 (Homo sapiens) (UniProt Q16644); assay: Inhibition of human MAPKAPK3 assessed as remaining enzyme activity at 50 uM after 30 mins by 33P-ATP filter-binding assay
[13] = target: Serine/threonine-protein kinase Sgk1 (Homo sapiens) (UniProt O00141); assay: Inhibition of human SGK1 assessed as remaining enzyme activity at 50 uM after 30 mins by 33P-ATP filter-binding assay
[14] = target: Serine/threonine-protein kinase 16 (Homo sapiens) (UniProt O75716); assay: Inhibition of human MPSK1 (1 to 305 residues) assessed as remaining enzyme activity at 50 uM after 30 mins by 33P-ATP filter-binding assay
[15] = Ionization constant, pKa of the compound in buffer at pH 1 to 13 by uV spectrophotometry; format: physicochemical
[16] = target: MAP kinase-interacting serine/threonine-protein kinase 2 (Homo sapiens) (UniProt Q9HBH9); assay: Inhibition of human MNK2 assessed as remaining enzyme activity at 50 uM after 30 mins by 33P-ATP filter-binding assay
[17] = target: MAP/microtubule affinity-regulating kinase 3 (Homo sapiens) (UniProt P27448); assay: Inhibition of human MARK3 (2 to 729 residues) assessed as remaining enzyme activity at 50 uM after 30 mins by 33P-ATP filter-binding assay
[18] = target: Serine/threonine-protein kinase Chk1 (Homo sapiens) (UniProt O14757); assay: Inhibition of human CHK1 (1 to 476 residues) assessed as remaining enzyme activity at 50 uM after 30 mins by 33P-ATP filter-binding assay
[19] = Cytotoxicity against human DU145 cells assessed as cell growth inhibition after 48 hrs by MTT assay; format: functional; settings: DU-145, 48 h
[20] = target: Protein kinase C alpha type (Homo sapiens) (UniProt P17252); assay: Inhibition of human PKCalpha (1 to 672 residues) assessed as remaining enzyme activity at 50 uM after 30 mins by 33P-ATP filter-binding assay
[21] = target: Interleukin-1 receptor-associated kinase 1 (Homo sapiens) (UniProt P51617); assay: Inhibition of human IRAK1 (1 to 712 residues) assessed as remaining enzyme activity at 50 uM after 30 mins by 33P-ATP filter-binding assay
CDK9/cyclin T1 = CDK9/cyclin T1 (Homo sapiens, UniProt P50750); assay: Inhibition of human Cdk9/T1 using YSPTSPSYSPTSPSYSPTSPKKK peptide as substrate after 30 mins by 33P-ATP filter-binding assay; format: protein-complex assay
[22] = Cytotoxicity against human HL60 cells assessed as cell growth inhibition after 48 hrs by MTT assay; format: functional; settings: HL-60, 48 h
[23] = target: Mitogen-activated protein kinase kinase kinase 7 (Homo sapiens) (UniProt O43318); assay: Inhibition of human TAK1 (1 to 303 residues) assessed as remaining enzyme activity at 50 uM after 30 mins by 33P-ATP filter-binding assay
[24] = Cytotoxicity against human SNB75 cells assessed as cell growth inhibition after 48 hrs by MTT assay; format: functional; settings: SNB-75, 48 h
[25] = Partition coefficient, logP of the compound in water/PBS buffer at 25 degC by OECD guidelines based method; format: physicochemical; settings: water/PBS buffer; read-out: logP
[26] = target: MAP kinase-activated protein kinase 5 (Homo sapiens) (UniProt Q8IW41); assay: Inhibition of human PRAK (1 to 471 residues) assessed as remaining enzyme activity at 50 uM after 30 mins by 33P-ATP filter-binding assay
[27] = target: Dual specificity mitogen-activated protein kinase kinase 1 (Homo sapiens) (UniProt Q02750); assay: Inhibition of human MKK1 (2 to 393 residues) assessed as remaining enzyme activity at 50 uM after 30 mins by 33P-ATP filter-binding assay
[28] = target: Aurora kinase B (Homo sapiens) (UniProt Q96GD4); assay: Inhibition of human Aurora B (1 to 344 residues) assessed as remaining enzyme activity at 50 uM after 30 mins by 33P-ATP filter-binding assay
[29] = target: CDK9/cyclin T1 (Homo sapiens) (UniProt O60563+P50750); assay: Inhibition of human Cdk9/T1 using YSPTSPSYSPTSPSYSPTSPKKK peptide as substrate at 0.5 uM after 30 mins by 33P-ATP filter-binding assay; format: protein-complex assay

Ephrin type-B receptor 4 (Homo sapiens), sequence (P54760 whole entry, the tested form may be a part): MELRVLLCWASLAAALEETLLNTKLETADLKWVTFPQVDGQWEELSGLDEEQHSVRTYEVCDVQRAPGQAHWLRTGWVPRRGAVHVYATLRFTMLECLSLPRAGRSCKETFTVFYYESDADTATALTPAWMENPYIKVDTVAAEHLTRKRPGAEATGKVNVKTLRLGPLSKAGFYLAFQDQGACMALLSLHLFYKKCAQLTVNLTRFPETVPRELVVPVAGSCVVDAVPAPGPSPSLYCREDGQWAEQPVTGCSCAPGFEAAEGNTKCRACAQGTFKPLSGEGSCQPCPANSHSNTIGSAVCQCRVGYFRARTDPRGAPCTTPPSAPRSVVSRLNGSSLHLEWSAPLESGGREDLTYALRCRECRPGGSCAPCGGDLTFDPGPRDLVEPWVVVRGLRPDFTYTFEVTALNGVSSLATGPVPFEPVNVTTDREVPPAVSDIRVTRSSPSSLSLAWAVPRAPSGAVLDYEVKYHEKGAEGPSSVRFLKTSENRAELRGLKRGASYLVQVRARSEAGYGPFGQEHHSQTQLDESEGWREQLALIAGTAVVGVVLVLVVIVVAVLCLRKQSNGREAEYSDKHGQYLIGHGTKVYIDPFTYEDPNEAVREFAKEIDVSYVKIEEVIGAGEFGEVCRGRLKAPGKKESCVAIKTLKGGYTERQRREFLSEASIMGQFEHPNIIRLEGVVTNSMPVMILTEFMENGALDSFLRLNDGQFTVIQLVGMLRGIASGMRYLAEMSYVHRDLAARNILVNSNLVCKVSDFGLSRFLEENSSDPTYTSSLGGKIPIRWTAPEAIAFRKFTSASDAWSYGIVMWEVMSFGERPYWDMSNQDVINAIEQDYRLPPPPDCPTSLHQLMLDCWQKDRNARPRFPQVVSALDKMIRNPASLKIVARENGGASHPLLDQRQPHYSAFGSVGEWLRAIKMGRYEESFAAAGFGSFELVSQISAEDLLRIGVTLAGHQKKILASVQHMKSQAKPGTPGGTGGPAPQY
Serine/threonine-protein kinase Chk1 (Homo sapiens), sequence (O14757 whole entry, the tested form may be a part): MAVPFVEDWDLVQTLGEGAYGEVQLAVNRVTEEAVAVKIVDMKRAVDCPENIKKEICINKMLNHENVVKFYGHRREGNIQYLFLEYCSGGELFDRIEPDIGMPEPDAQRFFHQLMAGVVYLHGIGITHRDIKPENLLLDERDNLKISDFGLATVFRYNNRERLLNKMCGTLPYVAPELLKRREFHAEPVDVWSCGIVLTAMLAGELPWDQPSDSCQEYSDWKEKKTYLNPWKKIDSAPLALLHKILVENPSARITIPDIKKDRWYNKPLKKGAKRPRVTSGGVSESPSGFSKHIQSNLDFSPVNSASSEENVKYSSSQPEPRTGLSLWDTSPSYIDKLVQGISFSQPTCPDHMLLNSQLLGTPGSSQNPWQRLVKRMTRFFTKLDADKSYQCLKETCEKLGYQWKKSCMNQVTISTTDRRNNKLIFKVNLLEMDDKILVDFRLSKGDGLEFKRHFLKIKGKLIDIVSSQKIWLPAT
MAP kinase-activated protein kinase 3 (Homo sapiens), sequence (Q16644 whole entry, looked up): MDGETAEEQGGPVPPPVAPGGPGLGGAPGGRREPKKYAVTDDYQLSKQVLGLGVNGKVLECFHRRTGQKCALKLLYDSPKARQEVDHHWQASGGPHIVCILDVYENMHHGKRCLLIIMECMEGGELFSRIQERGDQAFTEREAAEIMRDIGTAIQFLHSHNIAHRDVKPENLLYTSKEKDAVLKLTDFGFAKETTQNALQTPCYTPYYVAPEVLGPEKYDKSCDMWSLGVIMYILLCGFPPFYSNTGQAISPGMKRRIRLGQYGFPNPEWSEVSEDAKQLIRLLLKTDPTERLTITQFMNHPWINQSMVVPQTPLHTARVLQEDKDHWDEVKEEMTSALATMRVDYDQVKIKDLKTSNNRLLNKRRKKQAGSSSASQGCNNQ
MAP kinase-interacting serine/threonine-protein kinase 2 (Homo sapiens), sequence (Q9HBH9 whole entry, looked up, the tested form may be a part): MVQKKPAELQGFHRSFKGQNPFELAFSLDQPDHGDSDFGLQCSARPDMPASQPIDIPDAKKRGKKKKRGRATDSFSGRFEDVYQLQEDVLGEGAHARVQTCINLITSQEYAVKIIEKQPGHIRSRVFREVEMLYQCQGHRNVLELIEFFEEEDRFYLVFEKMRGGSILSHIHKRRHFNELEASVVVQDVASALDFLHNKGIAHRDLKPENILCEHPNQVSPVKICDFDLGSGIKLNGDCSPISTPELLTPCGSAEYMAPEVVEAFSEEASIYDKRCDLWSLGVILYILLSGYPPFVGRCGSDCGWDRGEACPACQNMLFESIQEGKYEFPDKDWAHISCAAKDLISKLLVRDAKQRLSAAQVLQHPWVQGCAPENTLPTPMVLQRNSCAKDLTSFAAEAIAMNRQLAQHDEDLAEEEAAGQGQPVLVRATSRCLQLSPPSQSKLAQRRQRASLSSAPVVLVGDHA
Interleukin-1 receptor-associated kinase 1 (Homo sapiens), sequence (P51617 whole entry, looked up, the tested form may be a part): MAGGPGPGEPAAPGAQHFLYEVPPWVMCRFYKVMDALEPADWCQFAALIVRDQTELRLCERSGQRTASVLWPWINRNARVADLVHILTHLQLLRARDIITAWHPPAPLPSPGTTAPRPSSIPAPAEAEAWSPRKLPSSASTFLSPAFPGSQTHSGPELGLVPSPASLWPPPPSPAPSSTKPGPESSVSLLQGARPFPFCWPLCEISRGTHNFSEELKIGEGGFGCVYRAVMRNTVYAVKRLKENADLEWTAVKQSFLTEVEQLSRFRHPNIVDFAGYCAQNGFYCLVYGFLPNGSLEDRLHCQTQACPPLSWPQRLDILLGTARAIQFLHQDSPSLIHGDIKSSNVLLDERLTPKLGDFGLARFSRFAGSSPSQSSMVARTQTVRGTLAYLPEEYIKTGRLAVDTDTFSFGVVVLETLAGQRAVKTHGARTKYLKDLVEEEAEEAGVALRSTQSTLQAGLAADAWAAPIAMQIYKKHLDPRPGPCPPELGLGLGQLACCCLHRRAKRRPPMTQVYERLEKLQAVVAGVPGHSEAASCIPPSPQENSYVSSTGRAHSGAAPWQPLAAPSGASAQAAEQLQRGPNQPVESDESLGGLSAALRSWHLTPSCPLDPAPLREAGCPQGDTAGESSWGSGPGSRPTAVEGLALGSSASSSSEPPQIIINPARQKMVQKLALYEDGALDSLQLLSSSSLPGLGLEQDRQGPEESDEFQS
Serine/threonine-protein kinase tousled-like 1 (Homo sapiens), sequence (Q9UKI8 whole entry, the tested form may be a part): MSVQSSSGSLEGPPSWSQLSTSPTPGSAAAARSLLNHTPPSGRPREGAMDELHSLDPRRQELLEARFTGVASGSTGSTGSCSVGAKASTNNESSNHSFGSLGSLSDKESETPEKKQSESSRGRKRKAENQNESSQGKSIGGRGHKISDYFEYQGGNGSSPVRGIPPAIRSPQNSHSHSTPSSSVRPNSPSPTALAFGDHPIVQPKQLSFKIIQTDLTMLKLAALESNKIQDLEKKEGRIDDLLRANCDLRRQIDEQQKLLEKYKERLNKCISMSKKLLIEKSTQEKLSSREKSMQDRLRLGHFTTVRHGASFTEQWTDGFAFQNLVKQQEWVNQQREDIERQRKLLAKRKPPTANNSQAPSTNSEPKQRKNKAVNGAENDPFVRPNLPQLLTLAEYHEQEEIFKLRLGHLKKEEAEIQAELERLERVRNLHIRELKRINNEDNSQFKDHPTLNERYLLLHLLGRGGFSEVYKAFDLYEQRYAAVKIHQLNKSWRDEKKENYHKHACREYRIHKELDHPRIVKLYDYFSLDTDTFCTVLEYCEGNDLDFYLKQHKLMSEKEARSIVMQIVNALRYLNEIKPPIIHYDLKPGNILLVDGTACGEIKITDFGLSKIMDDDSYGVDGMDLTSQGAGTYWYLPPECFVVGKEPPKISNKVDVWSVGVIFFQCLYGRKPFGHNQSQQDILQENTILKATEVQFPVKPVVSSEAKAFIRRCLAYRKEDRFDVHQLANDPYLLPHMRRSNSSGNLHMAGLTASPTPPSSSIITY
Tyrosine-protein kinase Lck (Homo sapiens), sequence (P06239 2-509 limits assumed): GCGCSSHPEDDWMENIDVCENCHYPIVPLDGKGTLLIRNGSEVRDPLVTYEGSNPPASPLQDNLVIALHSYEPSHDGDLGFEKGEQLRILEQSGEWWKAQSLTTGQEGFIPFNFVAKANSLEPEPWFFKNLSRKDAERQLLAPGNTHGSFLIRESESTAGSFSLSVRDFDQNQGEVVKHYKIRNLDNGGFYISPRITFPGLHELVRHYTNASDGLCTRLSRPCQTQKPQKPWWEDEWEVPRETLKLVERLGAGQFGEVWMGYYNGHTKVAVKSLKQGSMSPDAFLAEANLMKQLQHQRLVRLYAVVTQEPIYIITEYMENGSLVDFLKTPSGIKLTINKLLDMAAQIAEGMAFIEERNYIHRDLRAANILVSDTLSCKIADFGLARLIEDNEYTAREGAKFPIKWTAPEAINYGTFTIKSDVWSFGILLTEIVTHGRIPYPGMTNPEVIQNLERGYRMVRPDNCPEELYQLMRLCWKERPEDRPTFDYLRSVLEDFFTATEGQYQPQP
Mitogen-activated protein kinase 14 (Homo sapiens), sequence (Q16539 whole entry, the tested form may be a part): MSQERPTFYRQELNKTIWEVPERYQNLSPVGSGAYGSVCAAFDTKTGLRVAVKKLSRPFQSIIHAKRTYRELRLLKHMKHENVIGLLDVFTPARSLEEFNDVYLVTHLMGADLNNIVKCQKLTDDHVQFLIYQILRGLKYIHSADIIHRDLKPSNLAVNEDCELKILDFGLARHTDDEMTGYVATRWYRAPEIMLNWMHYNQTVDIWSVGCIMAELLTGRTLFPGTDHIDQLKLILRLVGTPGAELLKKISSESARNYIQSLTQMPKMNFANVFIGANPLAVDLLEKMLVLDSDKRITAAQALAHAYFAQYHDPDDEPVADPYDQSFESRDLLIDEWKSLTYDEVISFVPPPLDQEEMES
Aurora kinase B (Homo sapiens), sequence (Q96GD4 whole entry, the tested form may be a part): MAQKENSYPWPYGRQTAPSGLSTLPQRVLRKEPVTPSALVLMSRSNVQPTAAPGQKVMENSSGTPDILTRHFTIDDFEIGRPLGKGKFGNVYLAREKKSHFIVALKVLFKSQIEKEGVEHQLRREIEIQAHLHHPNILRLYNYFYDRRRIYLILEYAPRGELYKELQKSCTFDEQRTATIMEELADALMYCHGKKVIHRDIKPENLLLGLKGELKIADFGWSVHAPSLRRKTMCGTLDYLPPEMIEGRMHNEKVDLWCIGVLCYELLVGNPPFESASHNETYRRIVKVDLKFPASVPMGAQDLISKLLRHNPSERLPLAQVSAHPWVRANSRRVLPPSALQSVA

Activity [1]: 118%
Activity [2]: 91%
Activity [5]: 109%
Activity [6]: 84%
Activity [7]: 54%
Activity [8]: 69%
Activity [9]: 45%
Activity [10]: 87%
Activity [11]: 64%
Activity [12]: 83%
Activity [13]: 92%
Activity [14]: 87%
pKa [15]: 5.83
Activity [16]: 49%
Activity [17]: 41%
Activity [18]: 52%
Activity [20]: 78%
Activity [21]: 55%
IC50 (CDK9/cyclin T1): 0.3 µM
Activity [23]: 70%
logP [25]: 0.73
Activity [26]: 72%
Activity [27]: 27%
Activity [28]: 58%
inhibition [29]: 75%
SMILES: Cc1cc(=O)c2c(O)cc(O)c([C@H]3CCN(C)C[C@H]3O)c2o1 [ROHITUKINE]
Activity [3]: 56%
GI50 [4]: 27 µM
GI50 (PSN1): 23 µM
GI50 (MDA-MB-468): 17 µM
GI50 [19]: 26 µM
GI50 [22]: 10 µM
GI50 [24]: 22 µM
